# Measurements reported in patent US7776794B2, “Biosensor using living cells on silicon-based microarrays” (The Research Foundation of State University of New York, priority 2003, dated 2010).
# System: FT cells
# Experiment: Amperometric recording of norepinephrine release from pre-loaded FT cells on the microarray upon ATP stimulation
# Format: cell-based, Rana catesbeiana
# Details: ATP final concentration 300 μM in FT medium; FT cells preloaded in 4 mM NE for 15 min; single electrode held at 700 mV (FIG. 9, trace 1)
# Procedure: The cells, which have grown to become a confluent monolayer on the surface of the microarray, are “pre-loaded” with medium containing the appropriate amount of an oxidizable molecule, for example, 0.5-10 mM of a catecholamine such as norepinephrine (NE), for a time sufficient for the cells to endocytose the catecholamine, about 1-30 minutes. The pre-loading medium is then replaced with fresh medium, and the solution is grounded with a Ag/AgCl wire.
# Within minutes of pre-loading, the cells are then exposed to a biological sample containing an analyte, the detection of which is desired. Binding of analyte to a receptor on the cells' surface increases intracellular calcium, thereby stimulating release of the pre-loaded NE. This secretion event is detected with millisecond temporal resolution via electrochemical oxidation of the secreted compound on an electrode that is voltage-clamped slightly above its redox potential. Increases in current due to oxidation of NE on the Cr/Au electrode is recorded. This is represented schematically in FIG. 4.
# A microarray containing a confluent growth of FT cells was subsequently tested. To test the response properties of the cells to ATP (0.3 mM), microarrays with confluent cultures of cells were measured prior to preloading with NE. Then, cells were pre-loaded with varying concentrations of NE and ATP was reapplied. […]
structure (smiles),measurement,value
Nc1ncnc2c1ncn2[C@@H]1O[C@H](COP(=O)(O)OP(=O)(O)OP(=O)(O)O)[C@@H](O)[C@H]1O [ATP],duration of current response,9 to 10 min
same,peak current above baseline,approximately 800 pA
